“Also recorded” adds a separate entry of the source.
Assays:
[1] = tested on: CAGE expression in PANC-1 and ACHN cancer cell lines; assay: RT-PCR of CAGE expression after treatment of cancer cell lines that do not express CAGE; format: cell-based; settings: various concentrations for 4 days or 2 μM for various time periods
Source text: Many of the known C/T antigen genes are methylated in their promoter regions. […] It is understood that it would be within one of ordinary skill in the art to determine the methylation status of CAGE gene by cloning the promoter sequence of CAGE using any available method such as, but not limited to, genomic inverse PCR.
Next, we investigated whether CAGE gene was methylated. […] For RT-PCR, 5′-[…]-3′ (sense, SEQ ID NO: 11) and 5′-[…]-3′ (antisense, SEQ ID NO: 7) were used. While the mechanism of transcriptional silencing of CAGE in some cancer cell lines may not be clear, it appears that testis-specific expression of CAGE is related at least in part to its demethylation level. In addition, the role of transcription factors in the expression of CAGE gene cannot be ruled out. The absence of transcription factors in other somatic tissues may be responsible for the absence of CAGE expression in these tissues.

CD8+ T cells = assay: IFN-γ ELISPOT assay for measuring CD8+ T cell stimulation; format: cell-based, human; settings: 10 μg/ml peptide; CD8+ T cells from PBL of healthy HLA-A2 donors as effector, T2 cells as target, 20 hours
Procedure: With these peptides, we stimulated CD8+ T cells isolated from PBL of healthy donors. The activated CD8+ T cells were incubated with target cells ([…]). The effect of CD8+ T cells on target cells was measured by ELISPOT assay, which detects the amount of IFN-γ released due to activation of CD8+ T cells.
For isolation of PBL, Ficoll-Paque® PLUS (Amersham Pharmacia Biotech) was used. Isolation of PBLs was carried out according to the instruction manual provided by the manufacturer (Amersham Pharmacia Biotech). Briefly, 30 ml of whole blood was mixed with 20 ml of Ficoll-Paque® and centrifuged at 800 g for 20 min. The pellet was transferred to a new tube. 20 ml of PBS buffer was added to the pellet, and centrifuged at 800 g for 10 min. After centrifugation, 10 ml of PBS buffer was added to the pellet. 5 ml of Ficoll-Paque® was added and the contents centrifuged at 800 g for 20 min. 10 ml PBS was added to the pellet for washing, and the contents centrifuged at 800 g for 10 min. Isolated PBLs from healthy donors (HLA-A2 type) were dissolved in RPMI 1640 containing 10% human serum and antibiotics.
For isolation of CD8+ T cells from PBL, CD8 negative isolation kit (DYNAL) was used and isolation was carried out according to the instruction manual provided by the manufacturer. […]

Compound | induction of CAGE expression (RT-PCR) [1] | induction of CD8+ T cells (IFN-γ release, ELISPOT) (CD8+ T cells)
Nc1ncn([C@H]2C[C@H](O)[C@@H](CO)O2)c(=O)n1 [5-aza-2′-deoxycytidine] | induced CAGE expression in both dose and time-dependent manner; also recorded: induced expression of CAGE in dosage and time-dependent manner | 
YLMPGFIHL [peptide of CAGE protein, start position 276] |  | showed induction of CD8+ T cells
KMAGELIKI [peptide of CAGE protein, start position 576] |  | showed induction of CD8+ T cells

Reference: patent US20030092083A1, “Cage antigen” (priority 2001, published 2003)
